Like-named read-outs stand apart in the source and are kept apart here.

This is an account of results in EP0746294B1, “ABSORPTION ENHANCERS FOR TOPICAL PHARMACEUTICAL FORMULATIONS” (ODONTEX, INC., priority 1993, dated 1995).

The conditions of series [1]: cited from earlier work.
Series [2] in a line: Penetration of drugs through shed snake skin pretreated with enhancer (Franz diffusion cell, HPLC). To be noted: for RE (Relative enhancement compared to Azone®) / R.E. (Relative enhancement): 32°C; for R.E. (Relative enhancement): pH 7.0, relative to control (=1). On the procedure: The penetration promoting activity of DAIPD was compared to that of Azone®, taken as a typical enhancer, using shed snake skin as a model membrane. […] The permeants were selected to provide examples of basic drugs (clonidine), neutral drugs (hydrocortisone) and acidic drugs (indomethacin).
Shed snake skins were prepared as previously reported (Büyüktimkin, S., Büyüktimkin, N., and Rytting, J.H., Synthesis and enhancing effect of dodecyl 2-(N,N-dimethylamino) propionate on the transepidermal delivery of indomethacin, clonidine, and hydrocortisone, Pharm. Res., 10: 1632-1637, 1993) and as described in U.S. Patents No. 4,980,378 and No. 5,082,866, the disclosures of which are incorporated herein by reference. Shed snake skins were stored at -20°C. Before the experiment they were allowed to come to room temperature at least 12 hours before use. To reduce the variability of results, pieces cut from the same whole snake skin were used for each set of experiments
Indomethacin, clonidine, and hydrocortisone were assayed by HPLC procedures as described earlier; see Büyüktimkin et al., (1993), above.
Pieces of shed snake skin (approximately 3 x 3 cm) were pretreated with 15 µl of enhancer (divided into three 5 µl portions) 2 hr before the experiment. After mounting the skin on top of a Franz receptor cell filled with pH 7.0 (0.1 M) phosphate buffer, the donor cell was clamped on the top of the receptor cell. An aliquot of 0.5 ml of a suspension of hydrocortisone or indomethacin, prepared by suspending 50 mg or 25 mg of the drugs respectively, in 25 ml of the same buffer and stirring for 24 hr at 32°C, or a solution of clonidine (2%) in the same buffer were added to the donor cell. The solution in the receptor compartment was stirred by a magnetic stirrer. At appropriate time intervals samples were withdrawn from the receptor compartment and analyzed by HPLC.

In series [3] the test system is porcine esterase. The series is described as follows: Biodegradability of the enhancer in the presence of porcine esterase (HPLC disappearance of enhancer peak). The class given is in vitro ADME. To be noted: 32°C, pH 7.0. Here is the method:
A 0.1 ml aliquot of porcine esterase (235 units per mg protein) was diluted to 100 ml with pH 7.0 phosphate buffer. The enhancer solution was prepared by dissolving -12 mg (-0.045 mmoles) of the enhancer in 10 ml acetonitrile. An aliquot of 100 µl of this solution was transferred into a 10 ml volumetric flask. 9.8 ml of pH 7.0 buffer and 100 µl diluted esterase solution were added. The mixture was kept in a water bath at 32°C with constant stirring. The disappearance of the enhancer peak was monitored by HPLC. The absorbance wavelength was 204 nm. The solvent system was a mixture of acetonitrile and 0.02 M aqueous sodium hexanesulfonate (7:4) with a flow rate of 0.9 ml/min. The retention time of DAIPD was 3.95 min. The kinetic runs were done in triplicate.
The existence of esterase activity has been reported in shed snake skin (Nghiem, B.T., and Higuchi, T., Esterase activity in snake skin, Int. J. Pharm. 44: 125-130, 1988) . To confirm the biodegradability of DAIPD, its fragmentation in the presence of porcine esterase was examined. […] Esterase-catalyzed biodegradability of the enhancer is therefore confirmed. […] (Hirvonen, J., Paronen, P., and Urtti, A., Reversible enhancement of transdermal propranolol by dodecyl N,N-dimethylamino acetate, 18th International Symposium on Controlled Release of Bioactive Materials, July 8-11, 1991, Amsterdam, p 31).

The conditions of series [4]: n-octanol/pH 7.0 buffer; cited from earlier work.

As to `CCCCCCCCCCCCN1CCCCCC1=O` [Azone®, 1-dodecylazacycloheptane-2-one], the “enhancement of transdermal delivery of propranolol following pretreatment” value in series [1] (after a week) was “the enhancement still existed”. The “RE (Relative enhancement compared to Azone®)” value in series [2] (Clonidine), in series [2] (Hydrocortisone), in series [2] (Indomethacin), in series [2] (Prazosin (45% ethanolic solution)) and in series [2] (Prostaglandin E1) was 1 in each case. In addition, the “R.E. (Relative enhancement)” value turned out to be 13 in series [2] (clonidine), 41 in series [2] (hydrocortisone) and 46 in series [2] (indomethacin).

For `CCCCCCCCCCCC(=O)OC(C)CN(C)C` (stereo not shown) [DAIPD, 1-(N,N-dimethylamino)-2-propanol dodecanoate], the half-life at 45 µM in series [3] (pig, porcine esterase in phosphate buffer, degradation) stood at 79.5 min. Besides, the kobs in series [3] (pseudo first order degradation) worked out at 0.0087 min⁻¹. Also, the “RE (Relative enhancement compared to Azone®)” value in series [2] (Clonidine) is given as “approximately two-fold”; in series [2] (Hydrocortisone), “approximately two-fold”; in series [2] (Indomethacin), “approximately equal to that of Azone®”. Moreover, the “R.E. (Relative enhancement)” value amounted to 27 in series [2] (clonidine), 88 in series [2] (hydrocortisone) and 53 in series [2] (indomethacin). Moreover, in series [2] (permeation of Clonidine, standard deviation in brackets), the Lag times entry is recorded as “No lag time enhancement was found”.

In the case of `CCCCCCCCCCCCOC(=O)CN(C)C` [DDAA, dodecyl N,N-dimethylamino acetate], the “enhancement of transdermal delivery of propranolol following pretreatment” value in series [1] (after 4 days) was “no longer enhanced”.

In the case of `Clc1cccc(Cl)c1N=C1NCCN1` [clonidine], the log partition coefficient (log P) in series [4] is recorded as 0.4.

With `C[C@]12CCC(=O)C=C1CC[C@@H]1[C@@H]2[C@@H](O)C[C@@]2(C)[C@H]1CC[C@]2(O)C(=O)CO` [hydrocortisone], in series [4], the log partition coefficient (log P) was 0.8.

On to `COc1ccc2c(c1)c(CC(=O)O)c(C)n2C(=O)c1ccc(Cl)cc1` [indomethacin], for which the “log P” value in series [4] is 1.2.
